The values below come from ChEMBL document CHEMBL3616428, “Recent developments regarding the use of thieno[2,3-d]pyrimidin-4-one derivatives in medicinal chemistry, with a focus on their synthesis and anticancer properties” (Eur J Med Chem, 2015).

pIC50: −log10 of the molar value.

Experiment [1] relates to HCT-116. Kind of experiment: Potency index, ratio imatinib IC50 to compound IC50 for human HCT116 cells. Format: functional.
In experiment [2] the test system is HCT-116. Kind of experiment: Anticancer activity against human HCT116 cells. Type of experiment: functional, cell-based.
The subject of experiment [3] is HepG2. Kind of experiment: Anticancer activity against human HepG2 cells. Type of experiment: functional, cell-based.
Experiment [4] concerns HepG2. The experiment can be described thus: Anticancer activity against human HepG2 cells at 40 ug/ml after 72 hrs by MTT assay. Type of experiment: functional. The settings on record: HepG2, 72 h.
The subject of experiment [5] is HepG2. Kind of experiment: Anticancer activity against human HepG2 cells after 72 hrs by MTT assay. Type of experiment: functional, cell-based. The settings on record: HepG2, 72 h.
The test system of experiment [6] is MCF7. Kind of experiment: Anticancer activity against human MCF7 cells at 40 ug/ml after 72 hrs by MTT assay. Type of experiment: functional. The settings on record: MCF7, 72 h. (In general: Tetrazolium assays rely on reduction of a dye to a coloured formazan, in cell work by metabolically active cells.)
For experiment [7], the system named is MCF7. Kind of experiment: Anticancer activity against human MCF7 cells after 72 hrs by MTT assay. The note with it: MCF7, 72 h. Type of experiment: functional, cell-based.
Experiment [8] can be described thus: Anticancer activity against human […] cells after 72 hrs by MTT assay. Format: functional, cell-based.
A short description of experiment [9]: Anticancer activity against human Chronic myeloid leukemia cells at 20 uM after 24 hrs by MTT assay. Format: functional. The note with it: Leukemia cell.
Experiment [10] is described as follows: Anticancer activity against human Chronic myeloid leukemia cells at 10 uM after 24 hrs by MTT assay. The note with it: Leukemia cell. Format: functional.
In experiment [11] the target is Poly [ADP-ribose] polymerase 1 (Homo sapiens, UniProt P09874). Kind of experiment: Inhibition of PARP1 (unknown origin).
Poly [ADP-ribose] polymerase 1, sequence (P09874 whole entry): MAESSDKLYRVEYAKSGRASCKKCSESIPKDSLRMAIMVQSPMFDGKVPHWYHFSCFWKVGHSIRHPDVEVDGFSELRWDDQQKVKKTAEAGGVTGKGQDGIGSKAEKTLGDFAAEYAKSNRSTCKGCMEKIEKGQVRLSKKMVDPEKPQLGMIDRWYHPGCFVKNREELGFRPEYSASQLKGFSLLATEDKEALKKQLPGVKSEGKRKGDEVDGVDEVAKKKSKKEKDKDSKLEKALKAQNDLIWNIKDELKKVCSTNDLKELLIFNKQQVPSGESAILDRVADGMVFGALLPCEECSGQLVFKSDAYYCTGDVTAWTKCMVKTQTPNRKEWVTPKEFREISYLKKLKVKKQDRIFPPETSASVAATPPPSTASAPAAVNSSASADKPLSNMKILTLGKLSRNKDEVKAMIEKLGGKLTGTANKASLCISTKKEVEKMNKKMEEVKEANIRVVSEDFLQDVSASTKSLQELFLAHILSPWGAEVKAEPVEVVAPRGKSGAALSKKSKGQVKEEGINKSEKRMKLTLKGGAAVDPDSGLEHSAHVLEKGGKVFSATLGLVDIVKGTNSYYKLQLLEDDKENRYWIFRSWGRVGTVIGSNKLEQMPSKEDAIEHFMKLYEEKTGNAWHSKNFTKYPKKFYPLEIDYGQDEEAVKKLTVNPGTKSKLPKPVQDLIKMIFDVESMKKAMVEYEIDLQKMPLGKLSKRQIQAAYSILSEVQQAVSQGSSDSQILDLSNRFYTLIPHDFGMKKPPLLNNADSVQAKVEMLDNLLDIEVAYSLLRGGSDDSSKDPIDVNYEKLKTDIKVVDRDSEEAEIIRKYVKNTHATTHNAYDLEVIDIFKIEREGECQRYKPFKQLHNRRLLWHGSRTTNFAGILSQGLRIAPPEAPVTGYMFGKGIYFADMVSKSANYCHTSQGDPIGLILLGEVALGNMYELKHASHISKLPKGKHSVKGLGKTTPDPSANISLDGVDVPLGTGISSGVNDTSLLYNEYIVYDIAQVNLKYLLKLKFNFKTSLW

In general, pIC50 refers to the IC50 on a negative log10 scale, so that one unit is a factor of ten. The low end stands for a high IC50, the high end for a low IC50. As to `O=c1[nH]c(CNc2ccccc2)nc2sc3c(c12)CCCCCC3`, the “Ratio IC50” value with HCT-116 [1] turned out to be 2.89. The compound further gave a negative-log IC50 (pIC50) in the experiment with HCT-116 [2] of 4.92.
Consider `O=c1[nH]c(CNc2ccc(Cl)cc2)nc2sc3c(c12)CCCCCC3`, for which the “Ratio IC50” value in the experiment with HCT-116 [1] is given as 1.07. The compound further had a pIC50 in the experiment on HCT-116 [2] of 4.91.
In turn, `CC(=O)OC[C@H](OC(C)=O)[C@@H](OC(C)=O)[C@H](OC(C)=O)[C@H](OC(C)=O)c1nc2c3c4c(sc3nc(C)n2n1)CCc1ccccc1-4` showed a pIC50 with HepG2 [3] of 4.92.
Usually inhibition stands for how much of the control response was suppressed. A higher inhibition goes with strong suppression. On to `O=c1c2c3c(sc2ncn1Cc1ccc(Br)cc1)CCC=C3`, for which the inhibition at 40 µg/mL with HepG2 [4] and in the experiment on MCF7 [6] was 66.8% each time. For the same compound, the pIC50 in the experiment on HepG2 [5] is 4.83; in the experiment on MCF7 [7], 4.10; in experiment [8] it was 4.35.
Turning to `CC(C)(O)C#Cc1ncnc2sc3c(c12)CCC3`, in [9], 20 µM produced 54% inhibition. In experiment [10], this compound displayed an inhibition at 10 µM of 30%.
In [9], `Cc1csc2ncnc(C#Cc3ccccn3)c12` showed an inhibition at 20 µM of 60%. In experiment [10], 10 µM produced 32% inhibition.
On to `NCc1nc2sc3c(c2c(=O)[nH]1)CCC3`, for which, in [11], the pIC50 is 4.77.
As to `O=c1[nH]cc(F)c(=O)[nH]1` [FLUOROURACIL], the inhibition at 40 µg/mL in the experiment on HepG2 [4] and with MCF7 [6] was 68.2% each time.
Turning to `Cc1ccc(NC(=O)c2ccc(CN3CCN(C)CC3)cc2)cc1Nc1nccc(-c2cccnc2)n1` [IMATINIB], the pIC50 in the experiment with HCT-116 [2] was 4.46.
